{"source": "patent US7011834B1", "about": "“Immunomodulating dimers” (The Board of Trustees of Leland Stanford Junior University, priority 1987, dated 2006)", "key": {"[1]": {"test_system": "Lew specific CTL precursors in splenocytes", "assay": "Limiting dilution assay for CTL precursors in splenocytes after in vivo peptide", "design": "species or system rat", "details": "for [CTL precursor frequency]^−1: PVG rats, single iv 2 mg, Lew stimulators", "experimental": "The effect of peptides on CTL precursor frequencies in splenocytes was tested as follows. Limiting dilution analysis was carried out essentially as described (Moeller et al. 1993, supra; Skinner and Marbrook. J. Exp. Med. (1976) 143:1562). Briefly, spleens were removed from naive animals or from animals that had received an allograft a minimum of 60 days earlier and then teased into a single cell suspension. Responder cells were plated from 1000 to 40,000 cells per well (24 replicates per concentration) into round bottom microliter wells in RPMI 1640 supplemented with 10% fetal bovine serum (Hyclone, Logan, Utah), 2 mM L-glutamine, 5×10^−5M β-mercaptoethanol, 100 U/ml penicillin, 100 μg/ml streptomycin, 20% supernatant from Concanavalin A activated rat spleen cells, and 50 μM α-methyl mannoside. Then, 5×10^5 irradiated (2000 rads) stimulator cells were added to each well and plates were incubated in a humidified CO2 incubator. After 5 days, aliquots were removed and tested for lysis of ^51Cr-labeled Concanavalin A activated blasts. Aliquots of supernatant were counted in a gamma counter and CTL precursor frequency determined by linear regression (Skinner and Marbrook. 1976, supra). Wells were considered positive if specific release was >10%.\nPVG (RT1^c) or ACI […] rats were treated with a single intravenous injection of saline or 2 mg of A2.75-84, B7.75-84, B2702.75-84, or RT1^a.75-84 peptide. Their spleens were removed on different days after peptide treatment, cultured under limiting dilution conditions for 5 days with irradiated (2000R) splenocytes from Lewis rats; i.e., Lew (RT1^1) stimulator cells, and assayed for lysis of ^51Cr-labeled Lew blasts. CTL precursor frequency was determined by linear regression analysis."}, "murine heart allograft": {"test_system": "murine heart allograft", "assay": "Murine heart allograft survival, C57B1/6 donor to CBA recipient", "type": "in vivo, mice", "experimental": "Following the procedure set forth in Example 2C, daily administration of B2702.75-84 (80 mg/kg/day:ip) to CBA mice with (H-2^k) recipients of a C57B1/6 with (H-2^b) murine heart allograft prolonged graft survival to 11.4±2.6 days compared to 7.5±1.2 days in untreated control animals (n=8; p<0.01, Mann-Whitney U Test). The therapy using the same compound starting at day 5 after transplantation, prolonged graft survival to 9.2±0.4 days (n=5; p<0.02) indicating the subject composition could be useful in an ongoing rejection episode. In combination with a subtherapeutic dose of cyclosporin A (2.7 mg/kg/day; ip; day 0–4) the subject peptide prolonged graft survival to at least 45 days (3 grafts out of 4 still beating) compared to a median graft survival of 14 days in animals that received cyclosporin A monotherapy.\nWhen the B2702.75-84 was prepared as the D-isomer (all amino acids in the D-form) and administered to murine graft recipients at 10 mg/kg/day (ip; day 0–10), graft survival was prolonged to more than 22 days in 4 out of 5 animals (4 grafts out of 5 still beating)."}, "[2]": {"test_system": "CD8+CTL line specific for HLA-A2", "assay": "Cytotoxicity assay: inhibition of lysis by established CTL, 51Cr-labeled JY targets", "type": "cell-based, human", "details": "JY targets; for % Specific Lysis: cell ratio 1:1, CTL line AJY", "experimental": "Cytotoxicity Assay. CTL assays were performed as described using ^51Cr-labeled EBV transformed B cells expressing the appropriate HLA allele as targets [[…] et al., J. Immunol. (1982) 129:2001]. In the present protocol, a CD8+CTL line specific for HLA-A2 was tested in the presence of various peptides for lysis of ^51Cr-labeled JY targets. Peptides were added to a final concentration of 100 μg/ml at the initiation of the 4 h assay. Each determination was the mean of triplicate wells. […] In these determinations, inhibition of cytolysis, as described above, employed the CTL cell line AJY, a long term CD8+CTL line specific for HLA-A2 and the target cell was the B-lymphoblastoid cell line JY (HLA-A2, B7). The cytotoxicity assay was performed as described by Clayberger et al., J. Exp. Med. (1984) 162:1709-1714; and Reiss et al., Proc Natl Acad Sci USA (1980) 77:5432-5436. The peptides were preincubated for 30 min with 1-3×10^3 CTLs before addition of 10^3 51Cr-labeled B-lymphoblastoid target cells. The results are reported for varying concentrations of the peptide with varying ratios of the two cell lines."}, "[3]": {"test_system": "popliteal lymph node cells", "assay": "Lymph node proliferation assay (footpad injection of splenocytes)", "type": "in vivo, rat", "details": "treated within 24 hours of footpad injection; compared with approximately 3:1", "experimental": "ACI or PVG rats (200 g) were injected intravenously with peptides dissolved in saline on day 0. On the indicated days thereafter, the left rear footpads of the rats were injected with 5×10^6 splenocytes from a syngeneic donor and the right rear footpads with 5×10^6 splenocytes from an allogeneic Lew donor (Moeller et al. Transplantation (1993) 55:650). See also Twist and Barnes Transplantation (1973) 15:182; Fanslow et al. Science (1990) 248:739). Seven days after the footpad injection, the animals were sacrificed and the popliteal lymph nodes removed. A single cell suspension was prepared, and the cell number determined using a hemocytometer.\nPVG or ACI rats (3 per group) were given a single intravenous injection of 2 mg of each of the four peptides or saline. On the day of treatment, or on days 1, 7, or 10 after treatment, the right footpads were injected with 5×10^6 syngeneic splenocytes while the left footpads were injected with 5×10^6 allogeneic Lew splenocytes. Seven days after the footpad injections, the draining lymph nodes were removed, a single cell suspension was prepared, and the cell number determined."}, "rat splenocytes": {"test_system": "rat splenocytes", "assay": "Differentiation of rat splenocytes into allospecific CTL in vitro", "type": "cell-based", "details": "initial studies", "experimental": "Therefore, we tested whether splenocytes obtained from rats treated with the peptides in vivo could differentiate into CTL ex vivo. In preliminary studies, the half-life of the B7.75-84 peptide was determined to be 2–3 hours in rats."}}}
{"sequence": "RENLRIALRY [B2702.75–84]", "values": [{"measurement": "[CTL precursor frequency]^−1", "setting": "[1]; 0 days after peptide injection", "result": "54,631"}, {"measurement": "[CTL precursor frequency]^−1", "setting": "[1]; 1 day after peptide injection", "result": "54,631"}, {"measurement": "[CTL precursor frequency]^−1", "setting": "[1]; 7 days after peptide injection", "result": "465,572"}, {"measurement": "[CTL precursor frequency]^−1", "setting": "[1]; 10 days after peptide injection", "result": "468,071"}, {"measurement": "precursor frequency of Lew specific cells in splenocytes", "setting": "[1]; treated on the day of splenectomy or 24 hours earlier, compared with approximately 1 in 55,000", "result": "The same frequency"}, {"measurement": "graft survival", "setting": "murine heart allograft; 80 mg/kg/day ip daily, untreated 7.5±1.2 days, n=8", "result": "11.4 ± 2.6", "unit": "days"}, {"measurement": "graft survival", "setting": "murine heart allograft; peptide plus subtherapeutic cyclosporin A 2.7 mg/kg/day ip day 0–4", "result": "at least 45 days"}, {"measurement": "graft survival", "setting": "murine heart allograft; therapy starting at day 5 after transplantation, n=5", "result": "9.2 ± 0.4", "unit": "days"}, {"measurement": "inhibition of lysis by established CTL", "setting": "[2]; HLA-A2 specific CD8+CTL, peptides 100 μg/ml, 4 h assay", "result": "inhibited lysis"}, {"measurement": "% Specific Lysis", "setting": "[2]; peptide 25 μg/ml", "result": 23.9, "unit": "%"}, {"measurement": "% Specific Lysis", "setting": "[2]; peptide 100 μg/ml", "result": 18.6, "unit": "%"}, {"measurement": "% Specific Lysis", "setting": "[2]; peptide 200 μg/ml", "result": 16.4, "unit": "%"}, {"measurement": "ratio of cells recovered from side injected with allogeneic versus syngeneic cells", "setting": "[3]", "result": "A similar ratio"}, {"measurement": "blocking of differentiation of rat splenocytes into allospecific CTL in vitro", "setting": "rat splenocytes", "result": "blocked the differentiation"}]}
